Patent US12527835B2, “Brevican-binding peptides for brain tumor imaging” (The Brigham and Women's Hospital, Inc., priority 2018, dated 2026)

How the values were obtained:
human BBB organoids = experiment: BBB organoid peptide permeability assay; type: in vitro ADME; settings: Cy5.5-labeled peptide, 10 μM, 3 hrs
Method: Immortalized hCMEC/D3, primary HBVP and primary human astrocytes were used for generation of BBB organoids as previously described (Cho et al., Nat Commun 8, 15623 (2017); Fadzen et al., J. Am. Chem. Soc. 139, 15628-15631 (2017)). Briefly, agarose (0.5 g) was dissolved in 50 mL of MilliQ water or PBS in a conical flask and the solution was heated in a microwave for 1-2 minutes until completely dissolved. Melted agarose was transferred into a sterile tissue culture hood and immediately poured into a 50-mL sterile basin. 50 μL of melted agarose was dispensed into each well in a 96-well plate using a multichannel pipette. The plate was set aside to allow agarose to solidify completely inside the wells for at least 15 minutes. […] Each cell type was counted using a hemocytometer, and 1,500 of each cell type were seeded into each well containing solidified agarose. […]
For peptide permeability analyses, after 48 hrs, organoids that formed successfully were pooled together into a 0.5-mL microcentrifuge tube in BBB working medium. […] The organoids were then transferred onto a thin-well chambered coverglass and imaged by confocal fluorescence microscopy. Quantification of peptide permeability was performed using the ImageJ software, where the mean fluorescence intensity of the core of each spheroid (at a depth between 50-90 μm) was measured, and then plotted on GraphPad Prism.

[1] = cited from earlier work

SMILES	influx into the core of the BBB organoids (human BBB organoids)	solubility of CPT itself [1]
CC(C)[C@@H](NC(=O)[C@@H](Cc1c[nH]cn1)NC(=O)CNC(=O)[C@@H](Cc1c[nH]c2ccccc12)NC(=O)[C@@H](CCCCN)NC(=O)[C@H](N)[C@H](C)O)C(=O)N[C@H](CC(N)=O)C(=O)N[C@H](CCCCN)C(N)=O [BTP-7, TKWGHVNK]	dramatic influx	–
CC[C@@]1(O)C(=O)OCc2c1cc1n(c2=O)Cc2cc3ccccc3nc2-1 [CPT, camptothecin]	–	insoluble
